Data from ChEMBL document CHEMBL5390278, “PPARα/γ-Targeting Amorfrutin Phytocannabinoids from Aerial Parts of Glycyrrhiza foetida” (J Nat Prod, 2023).
Calls of active or inactive are those of the source. No cut-off for these calls is given here.

What was measured:
[1] = system: COS-7; assay: Cytotoxicity against African green monkey COS-7 cells assessed as cell viability at 1 to 30 uM incubated for 24 hrs by MTT assay; type: toxicity, cell-based; details: chlorocebus aethiops, cos-7, 24 h, dose 1-30 µM
[2] = target: T1, Peroxisome proliferator-activated receptor alpha (Homo sapiens) (UniProt Q07869); assay: Agonist activity at human PPAR alpha transfected in African green monkey COS-7 cells co-transfected with CMX-Gal4 fused hPPARalpha/TK-MH100x4-Luc/renilla luciferase assessed as fold increase in luciferase activity at 10 uM incubated for 24 hrs by Dual-Glo luciferase assay; type: cell-based; details: filed as agonist
T1 sequence (whole entry): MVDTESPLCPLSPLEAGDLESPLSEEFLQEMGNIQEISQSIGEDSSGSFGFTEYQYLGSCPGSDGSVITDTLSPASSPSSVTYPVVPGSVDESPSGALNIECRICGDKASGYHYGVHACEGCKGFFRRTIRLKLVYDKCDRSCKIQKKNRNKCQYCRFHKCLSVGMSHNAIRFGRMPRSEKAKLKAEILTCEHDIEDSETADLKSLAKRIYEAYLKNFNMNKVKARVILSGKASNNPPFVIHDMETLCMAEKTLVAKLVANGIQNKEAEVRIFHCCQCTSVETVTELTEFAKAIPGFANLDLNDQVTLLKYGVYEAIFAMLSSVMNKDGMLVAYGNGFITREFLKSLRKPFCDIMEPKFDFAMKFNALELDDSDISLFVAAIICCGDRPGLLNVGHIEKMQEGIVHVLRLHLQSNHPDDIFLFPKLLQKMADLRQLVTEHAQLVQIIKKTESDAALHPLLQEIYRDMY

[3] = target: T2, Peroxisome proliferator-activated receptor gamma (Homo sapiens) (UniProt P37231); assay: Agonist activity at human PPAR gamma transfected in African green monkey COS-7 cells co-transfected with CMX-Gal4 fused hPPARgamma/TK-MH100x4-Luc/renilla luciferase at 10 uM incubated for 24 hrs by Dual-Glo luciferase assay; type: cell-based; details: filed as agonist
T2 sequence (whole entry): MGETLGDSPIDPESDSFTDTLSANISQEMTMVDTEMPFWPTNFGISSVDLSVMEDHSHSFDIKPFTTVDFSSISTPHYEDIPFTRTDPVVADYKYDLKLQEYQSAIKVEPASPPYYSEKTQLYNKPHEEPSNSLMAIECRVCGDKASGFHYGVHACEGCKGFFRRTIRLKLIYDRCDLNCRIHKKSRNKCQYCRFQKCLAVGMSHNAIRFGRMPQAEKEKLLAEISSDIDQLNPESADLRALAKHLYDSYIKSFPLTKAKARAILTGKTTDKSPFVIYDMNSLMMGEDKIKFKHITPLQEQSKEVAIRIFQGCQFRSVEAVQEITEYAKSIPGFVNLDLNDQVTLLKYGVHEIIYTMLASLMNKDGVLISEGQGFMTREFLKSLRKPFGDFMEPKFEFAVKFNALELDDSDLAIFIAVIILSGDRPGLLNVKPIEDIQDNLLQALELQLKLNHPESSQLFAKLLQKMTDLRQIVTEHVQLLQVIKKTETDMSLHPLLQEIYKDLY

[4] = target: T2, Peroxisome proliferator-activated receptor gamma (Homo sapiens); assay: Agonist activity at human PPAR gamma transfected in African green monkey COS-7 cells co-transfected with CMX-Gal4 fused hPPARgamma/TK-MH100x4-Luc/renilla luciferase assessed as fold increase in luciferase activity at 10 uM incubated for 24 hrs by Dual-Glo luciferase assay; type: cell-based

SMILES | Activity [1] | fold change (FC) [2] | further results
CC(C)=CCc1c(O)cc(CCc2ccccc2)c(CC=C(C)C)c1O | Toxic |  | 
COc1cc(/C=C/c2ccccc2)cc(OC)c1CC=C(C)C | Toxic |  | 
CC(C)=CCc1c(O)cc(CCc2ccccc2)cc1O | Toxic |  | 
C=C(C)C(O)Cc1c(OC)cc(CCc2ccccc2)c(C(=O)O)c1O (racemic) |  | 5 | Activity [3]: Active
COc1cc(CCc2ccccc2)c(C(=O)O)c2c1[C@H](OC)[C@@H](C(C)(C)O)O2 | Toxic |  | 
COc1cc(CCc2ccccc2)cc(OC)c1CC=C(C)C | Toxic |  | 
CCCCCc1cc(OC)c2c(c1C(=O)O)OC(C(C)(C)O)C2 (racemic) |  | 5 | 
CCCCCc1cc(OC)c(CC=C(C)C)c(O)c1C(=O)O | Toxic |  | 
COc1cc(CCc2ccccc2)cc(O)c1CC=C(C)C | Toxic |  | 
COc1c(CC=C(C)C)c(O)c(C(=O)O)c(CCc2ccccc2)c1CC=C(C)C |  |  | Activity [3]: Active
COc1cc(/C=C/c2ccccc2)cc(O)c1CC=C(C)C | Toxic |  | 
COc1cc(CCc2ccccc2)c(C(=O)O)c2occc12 |  | 5 | 
CCCCCc1cc(O)c(CC=C(C)C)c(O)c1CC=C(C)C |  | 5 | 
COc1cc(C#Cc2ccccc2)cc(OC)c1CC=C(C)C | Toxic |  | 
C=C(C)C(Cc1c(OC)cc(CCc2ccccc2)c(C(=O)O)c1O)OO (racemic) |  | 5 | Activity [3]: Active
C=C(C)C(O)Cc1c(OC)cc(CCCCC)c(C(=O)O)c1O (racemic) |  | 5 | Activity [3]: Active
COc1cc(CCc2ccccc2)c(C(=O)O)c(O)c1CC=C(C)C |  | 5 | fold change (FC) [4]: > 20; Activity [3]: Active
